From PubChem BioAssay AID330 (DTP/NCI, 2004)
Where “and” joins values, the source holds several entries; their conditions need not be identical. Identical values can stand only once. Inconclusive results and toxic doses are left out. The calls were made as follows: active = survival T/C of 150% or more; inactive = T/C below 125% in these data.

System: P388 leukemia ip, CD2F1 mice, survival T/C
Assay: NCI In Vivo Anticancer Drug Screen. Data for tumor model P388 Leukemia (intraperitoneal) in CD2F1 (CDF1) mice
Details: endpoint: median survival time, higher = longer survival
Method in brief: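 Mice carrying the transplanted tumor received test compound or vehicle. Survival was recorded in each group, and the value is the treated-group measurement divided by that of the vehicle-treated control group.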

[1] = dose: 100.0 mg/kg/injection, schedule: Q04DX002 (ip), vehicle: saline with Tween-80
[2] = dose: 200.0 mg/kg/injection, schedule: Q04DX002 (ip), vehicle: saline with Tween-80
[3] = dose: 50.0 mg/kg/injection, schedule: Q01DX009 (ip), vehicle: saline with Tween-80
[4] = dose: 100.0 mg/kg/injection, schedule: Q01DX009 (ip), vehicle: saline with Tween-80
[5] = dose: 60.0 mg/kg/injection, schedule: Q01DX005 (ip), vehicle: saline with Tween-80
[6] = dose: 120.0 mg/kg/injection, schedule: Q01DX005 (ip), vehicle: saline with Tween-80
[7] = dose: 240.0 mg/kg/injection, schedule: Q01DX005 (ip), vehicle: saline with Tween-80
[8] = dose: 12.5 mg/kg/injection, schedule: Q01DX009 (ip), vehicle: other
[9] = dose: 25.0 mg/kg/injection, schedule: Q01DX009 (ip), vehicle: other
[10] = dose: 50.0 mg/kg/injection, schedule: Q01DX009 (ip), vehicle: other
[11] = dose: 100.0 mg/kg/injection, schedule: Q01DX009 (ip), vehicle: other
[12] = dose: 200.0 mg/kg/injection, schedule: Q01DX009 (ip), vehicle: other
[13] = dose: 50.0 mg/kg/injection, schedule: Q01DX005 (ip), vehicle: saline with Tween-80
[14] = dose: 50.0 mg/kg/injection, schedule: Q01DX005 (ip), vehicle: Klucel (hydroxypropylcellulose) (HPC)
[15] = dose: 12.5 mg/kg/injection, schedule: Q01DX005 (ip), vehicle: Klucel (hydroxypropylcellulose) (HPC)
[16] = dose: 25.0 mg/kg/injection, schedule: Q01DX005 (ip), vehicle: Klucel (hydroxypropylcellulose) (HPC)
[17] = dose: 100.0 mg/kg/injection, schedule: Q01DX005 (ip), vehicle: saline with Tween-80
[18] = dose: 200.0 mg/kg/injection, schedule: Q01DX005 (ip), vehicle: saline with Tween-80

Measured: T/C

CC(C)=CCc1ccc2c(c1)CCCN2C
inactive: [1] 108 % of control | [2] 108 % of control

O=C(N/N=c1/sc2ccccc2n1Cc1ccccc1)c1ccncc1
inactive: dose: 6.25 mg/kg/injection, schedule: Q01DX009 (ip), vehicle: Klucel (hydroxypropylcellulose) (HPC) 106 % of control | dose: 12.5 mg/kg/injection, schedule: Q01DX009 (ip), vehicle: Klucel (hydroxypropylcellulose) (HPC) 100 % of control | dose: 25.0 mg/kg/injection, schedule: Q01DX009 (ip), vehicle: Klucel (hydroxypropylcellulose) (HPC) 89 % of control

CCCCCCCC/C=C\CCCCCCCCN=Cc1c(O)c(O)c(C(C)C)c2cc(C)c(-c3c(C)cc4c(C(C)C)c(O)c(O)c(C=NCCCCCCCC/C=C\CCCCCCCC)c4c3O)c(O)c12
inactive: dose: 25.0 mg/kg/injection, schedule: Q01DX005 (ip), vehicle: saline + Tween-80 + alcohol 105 % of control | dose: 50.0 mg/kg/injection, schedule: Q01DX005 (ip), vehicle: saline + Tween-80 + alcohol 105 % of control | dose: 100.0 mg/kg/injection, schedule: Q01DX005 (ip), vehicle: saline + Tween-80 + alcohol 100 % of control | dose: 200.0 mg/kg/injection, schedule: Q01DX005 (ip), vehicle: saline + Tween-80 + alcohol 105 % of control

CN1C(=O)C2CCCN2C(=O)C1(C)NC(=O)OCc1ccccc1 (stereo unspecified)
inactive: dose: 3.12 mg/kg/injection, schedule: Q04DX003 (ip), vehicle: saline 107 % of control and 98 % of control | dose: 6.25 mg/kg/injection, schedule: Q04DX003 (ip), vehicle: saline 105 % of control and 98 % of control | dose: 12.5 mg/kg/injection, schedule: Q04DX003 (ip), vehicle: saline 102 % of control and 105 % of control | dose: 25.0 mg/kg/injection, schedule: Q04DX003 (ip), vehicle: saline 99 % of control and 107 % of control | dose: 25.0 mg/kg/injection, schedule: Q04DX003 (ip), vehicle: suspension in saline 100 % of control

NC(Cc1ccc(Br)cc1)c1nn[nH]n1 (stereo unspecified)
inactive: dose: 25.0 mg/kg/injection, schedule: Q01DX009 (ip), vehicle: saline with Tween-80 104 % of control | [3] 100 % of control | [4] 100 % of control

CSC(=S)/C(=C/Nc1ccccn1)c1ccccc1
inactive: dose: 0.93 mg/kg/injection, schedule: Q01DX005 (ip), vehicle: Klucel (hydroxypropylcellulose) (HPC) 100 % of control | dose: 1.87 mg/kg/injection, schedule: Q01DX005 (ip), vehicle: Klucel (hydroxypropylcellulose) (HPC) 94 % of control

O=C(O)c1ccc2n[se]nc2c1
inactive: [5] 96 % of control | [6] 105 % of control | [7] 97 % of control

CCOC(=O)C1C/C(=N\OC(C)=O)c2ccc(OC)c(OC)c2C1 (stereo unspecified)
inactive: [8] 110 % of control | [9] 101 % of control | [10] 98 % of control | [11] 87 % of control | [12] 88 % of control

Cc1c[n+]2ccccc2n1C
inactive: dose: 1.56 mg/kg/injection, schedule: Q01DX009 (ip), vehicle: saline 98 % of control | dose: 3.13 mg/kg/injection, schedule: Q01DX009 (ip), vehicle: saline 95 % of control | dose: 6.25 mg/kg/injection, schedule: Q01DX009 (ip), vehicle: saline 89 % of control

NC(=O)CC1OC(=O)Cc2cc3c(c(O)c21)C(=O)c1c(O)cccc1C3=O (stereo unspecified)
inactive: dose: 0.75 mg/kg/injection, schedule: Q01DX009 (ip), vehicle: DMSO 109 % of control | dose: 1.5 mg/kg/injection, schedule: Q01DX009 (ip), vehicle: DMSO 107 % of control | dose: 3.0 mg/kg/injection, schedule: Q01DX009 (ip), vehicle: DMSO 107 % of control | dose: 6.0 mg/kg/injection, schedule: Q01DX009 (ip), vehicle: DMSO 107 % of control

COc1nc2n[nH]nc2c(=O)n1C
inactive: [5] 104 % of control | [6] 102 % of control | [7] 101 % of control

O=C(c1ccccc1)N1CC2CCC1CN2C(=O)c1ccccc1
inactive: [8] 105 % of control | [9] 105 % of control | [10] 100 % of control | [11] 100 % of control | [12] 105 % of control

COc1ccc(-c2c(-c3ccccc3)oc(/N=C/c3ccccc3)c2-c2ccccc2)cc1
inactive: dose: 12.5 mg/kg/injection, schedule: Q01DX005 (ip), vehicle: saline with Tween-80 101 % of control | dose: 25.0 mg/kg/injection, schedule: Q01DX005 (ip), vehicle: saline with Tween-80 90 % of control | [13] 90 % of control

CCc1nc(N)nc(N)c1-c1ccc2c(c1)nnn2CCc1ccccc1
inactive: [14] 99 % of control | dose: 100.0 mg/kg/injection, schedule: Q01DX005 (ip), vehicle: Klucel (hydroxypropylcellulose) (HPC) 96 % of control

CC(NNC(=S)N(C)C1CCCCC1)c1nccc2ccccc12 (stereo unspecified)
inactive: dose: 30.12 mg/kg/injection, schedule: Q01DX001 (ip), vehicle: Klucel (hydroxypropylcellulose) (HPC) 101 % of control and 102 % of control | dose: 60.25 mg/kg/injection, schedule: Q01DX001 (ip), vehicle: Klucel (hydroxypropylcellulose) (HPC) 103 % of control and 107 % of control and 108 % of control | dose: 120.5 mg/kg/injection, schedule: Q01DX001 (ip), vehicle: Klucel (hydroxypropylcellulose) (HPC) 114 % of control and 115 % of control | dose: 241.0 mg/kg/injection, schedule: Q01DX001 (ip), vehicle: Klucel (hydroxypropylcellulose) (HPC) 108 % of control and 113 % of control

O=C1c2ccccc2NC2(C(=O)Nc3ccccc32)N1N1CCOCC1 (stereo unspecified)
inactive: [15] 100 % of control | [16] 100 % of control | [14] 101 % of control

CN(C)c1ccc(/C=N/NC(=O)C(=O)NCc2ccco2)cc1
inactive: [3] 94 % of control | [4] 86 % of control | dose: 200.0 mg/kg/injection, schedule: Q01DX009 (ip), vehicle: saline with Tween-80 91 % of control

CCOC(=O)c1c(C)n(C)c2c1nnc1ccccc12
inactive: [5] 98 % of control | [6] 90 % of control | [7] 86 % of control

O=C1NCCCCCC1S(=O)c1ccccc1 (stereo unspecified)
inactive: [13] 103 % of control | [17] 96 % of control | [18] 101 % of control

CCOP(=O)(O)C1CCCC(C)[N-]1.CCOP(=O)(O)C1CCCC(C)[N-]1.CCOP(=O)(O)C1CCCC(C)[N-]1.[Cr+3] (stereo unspecified)
inactive: dose: 100.0 mg/kg/injection, schedule: Q04DX003 (ip), vehicle: Klucel (hydroxypropylcellulose) (HPC) 100 % of control | dose: 200.0 mg/kg/injection, schedule: Q04DX003 (ip), vehicle: Klucel (hydroxypropylcellulose) (HPC) 92 % of control

c1ccc(/C(=N\Nc2nc3ccccc3s2)c2ccccn2)cc1
inactive: [13] 104 % of control | [17] 109 % of control | [18] 95 % of control

CC1(C)N=C(N)N=C(N)N1c1ccc(F)cc1
inactive: [15] 110 % of control | [16] 113 % of control

O=NNc1ccc(-c2ccc(NN=O)cc2)cc1
inactive: dose: 3.12 mg/kg/injection, schedule: Q01DX009 (ip), vehicle: water 97 % of control | dose: 6.25 mg/kg/injection, schedule: Q01DX009 (ip), vehicle: water 95 % of control | dose: 12.5 mg/kg/injection, schedule: Q01DX009 (ip), vehicle: water 97 % of control | dose: 25.0 mg/kg/injection, schedule: Q01DX009 (ip), vehicle: water 100 % of control and 89 % of control | dose: 50.0 mg/kg/injection, schedule: Q01DX009 (ip), vehicle: water 89 % of control and 94 % of control | dose: 100.0 mg/kg/injection, schedule: Q01DX009 (ip), vehicle: water 88 % of control | dose: 200.0 mg/kg/injection, schedule: Q01DX009 (ip), vehicle: water 91 % of control

O=C(NC(CO)C(=O)O)OCc1ccccc1 (stereo unspecified)
inactive: dose: 50.0 mg/kg/injection, schedule: Q01DX009 (ip), vehicle: Klucel (hydroxypropylcellulose) (HPC) 94 % of control | dose: 100.0 mg/kg/injection, schedule: Q01DX009 (ip), vehicle: Klucel (hydroxypropylcellulose) (HPC) 99 % of control | dose: 200.0 mg/kg/injection, schedule: Q01DX009 (ip), vehicle: Klucel (hydroxypropylcellulose) (HPC) 89 % of control

C/C(=N\Nc1nncn2cccc12)c1ccccc1
inactive: [1] 113 % of control | [2] 120 % of control | dose: 400.0 mg/kg/injection, schedule: Q04DX002 (ip), vehicle: saline with Tween-80 124 % of control

COC1(C)CNc2ccccc2C(=O)N1 (stereo unspecified)
inactive: [13] 96 % of control | [17] 98 % of control | [18] 94 % of control
